# Laboratory results reported in ChEMBL document CHEMBL1201861, “Genomics of Drug Sensitity in Cancer screening data, Wellcome Trust Sanger Institute”.
# Experiments:
# Assay in all cases: cells
# [1] = system: KM12; format: functional, cell-based, Homo sapiens; conditions: Homo sapiens, KM12;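 further: KM12 cell growth inhibition, read out with a cell viability assay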
# Description: SANGER: Inhibition of human KM12 cell growth in a cell viability assay.
# [2] = system: ETK-1; format: functional, cell-based, Homo sapiens; conditions: Homo sapiens, ETK-1;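 further: growth inhibition of human ETK-1 cells, read out with a cell viability assay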
# Description: SANGER: Inhibition of human ETK-1 cell growth in a cell viability assay.
# [3] = system: SF-268; format: functional, cell-based, Homo sapiens; conditions: Homo sapiens, SF-268;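 further: growth inhibition of SF-268 cells determined with a cell viability assay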
# Description: SANGER: Inhibition of human SF268 cell growth in a cell viability assay.
# [4] = system: HuTu80; format: functional, cell-based, Homo sapiens, HUTU-80; conditions: Homo sapiens, HuTu80;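 further: growth inhibition of HuTu80 human cells, determined with a cell viability readout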
# Description: SANGER: Inhibition of human HUTU-80 cell growth in a cell viability assay.
# [5] = system: SW982; format: functional, cell-based, Homo sapiens; conditions: Homo sapiens, SW982;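 further: growth inhibition of SW982 cells, read out with a cell viability assay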
# Description: SANGER: Inhibition of human SW982 cell growth in a cell viability assay.
# [6] = system: SK-N-FI; format: functional, cell-based, Homo sapiens; conditions: Homo sapiens, SK-N-FI;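 further: cell viability assay measuring growth inhibition of human SK-N-FI cells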
# Description: SANGER: Inhibition of human SK-N-FI cell growth in a cell viability assay.
# [7] = system: TGBC24TKB; format: functional, cell-based, Homo sapiens; conditions: Homo sapiens, TGBC24TKB;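 further: growth inhibition of human TGBC24TKB cells, read out with a cell viability assay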
# Description: SANGER: Inhibition of human TGBC24TKB cell growth in a cell viability assay.
# [8] = system: CP66-MEL; format: functional, cell-based, Homo sapiens; conditions: Homo sapiens, CP66-MEL;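 further: growth inhibition of CP66-MEL cells determined in a cell viability assay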
# Description: SANGER: Inhibition of human CP66-MEL cell growth in a cell viability assay.
# [9] = system: IST-MEL1; format: functional, cell-based, Homo sapiens; conditions: Homo sapiens, IST-MEL1;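 further: growth inhibition of the cell line, read out with a cell viability assay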
# Description: SANGER: Inhibition of human IST-MEL1 cell growth in a cell viability assay.
# [10] = system: RXF 393; format: functional, cell-based, Homo sapiens; conditions: Homo sapiens, RXF 393;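 further: growth inhibition of human RXF 393 cells, read out with a cell viability assay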
# Description: SANGER: Inhibition of human RXF393 cell growth in a cell viability assay.
# [11] = system: COLO-668; format: functional, cell-based, Homo sapiens; conditions: Homo sapiens, COLO-668
# Description: SANGER: Inhibition of human COLO-668 cell growth in a cell viability assay.
# [12] = system: HT-144; format: functional, cell-based, Homo sapiens; conditions: Homo sapiens, HT-144
# Description: SANGER: Inhibition of human HT-144 cell growth in a cell viability assay.
# [13] = system: SW684; format: functional, cell-based, Homo sapiens; conditions: Homo sapiens, SW684;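 further: growth inhibition of human SW684 cells, measured by a cell viability assay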
# Description: SANGER: Inhibition of human SW684 cell growth in a cell viability assay.
# [14] = system: EKVX; format: functional, cell-based, Homo sapiens; conditions: Homo sapiens, EKVX;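 further: growth inhibition of human EKVX cells, read out with a cell viability assay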
# Description: SANGER: Inhibition of human EKVX cell growth in a cell viability assay.
# [15] = system: CW-2; format: functional, cell-based, Homo sapiens; conditions: Homo sapiens, CW-2;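 further: growth inhibition of CW-2 cells, read out by a cell viability assay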
# Description: SANGER: Inhibition of human CW-2 cell growth in a cell viability assay.
# [16] = system: OMC-1; format: functional, cell-based, Homo sapiens; conditions: Homo sapiens, OMC-1;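 further: growth inhibition of the OMC-1 cell line, measured by a cell viability assay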
# Description: SANGER: Inhibition of human OMC-1 cell growth in a cell viability assay.
# [17] = system: NEC8; format: functional, cell-based, Homo sapiens; conditions: Homo sapiens, NEC8;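 further: growth inhibition of human NEC8 cells, read out by a cell viability assay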
# Description: SANGER: Inhibition of human NEC8 cell growth in a cell viability assay.
# [18] = system: 8-MG-BA; format: functional, cell-based, Homo sapiens; conditions: Homo sapiens, 8-MG-BA;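 further: growth inhibition of 8-MG-BA cells, read out with a cell viability assay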
# Description: SANGER: Inhibition of human 8-MG-BA cell growth in a cell viability assay.
# [19] = system: NB5; format: functional, cell-based, Homo sapiens; conditions: Homo sapiens, NB5;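 further: growth inhibition of NB5 cells, read out as cell viability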
# Description: SANGER: Inhibition of human NB5 cell growth in a cell viability assay.
# [20] = system: MZ1-PC; format: functional, cell-based, Homo sapiens; conditions: Homo sapiens, MZ1-PC;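 further: cell viability assay measuring growth inhibition of human MZ1-PC cells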
# Description: SANGER: Inhibition of human MZ1-PC cell growth in a cell viability assay.
# [21] = system: RKO; format: functional, cell-based, Homo sapiens; conditions: Homo sapiens, RKO;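 further: growth inhibition of human RKO cells, read out with a cell viability assay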
# Description: SANGER: Inhibition of human RKO cell growth in a cell viability assay.
# [22] = system: NB6; format: functional, cell-based, Homo sapiens; conditions: Homo sapiens, NB6;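 further: growth inhibition of NB6 cells, read out by a cell viability assay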
# Description: SANGER: Inhibition of human NB6 cell growth in a cell viability assay.
# [23] = system: ES6; format: functional, cell-based, Homo sapiens; conditions: Homo sapiens, ES6;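 further: growth inhibition of human ES6 cells, read out with a cell viability assay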
# Description: SANGER: Inhibition of human ES6 cell growth in a cell viability assay.
# [24] = system: KNS-42; format: functional, cell-based, Homo sapiens; conditions: Homo sapiens, KNS-42;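 further: growth inhibition of KNS-42 cells, read out with a cell viability assay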
# Description: SANGER: Inhibition of human KNS-42 cell growth in a cell viability assay.
# [25] = system: no-10; format: functional, cell-based, Homo sapiens; conditions: Homo sapiens;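 further: growth inhibition of no-10 cells, read out with a cell viability assay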
# Description: SANGER: Inhibition of human no-10 cell growth in a cell viability assay.
# [26] = system: BT-474; format: functional, cell-based, Homo sapiens; conditions: Homo sapiens, BT-474
# Description: SANGER: Inhibition of human BT-474 cell growth in a cell viability assay.
# [27] = system: GCIY; format: functional, cell-based, Homo sapiens; conditions: Homo sapiens, GCIY;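 further: growth inhibition of the human GCIY cell line, read out by a cell viability assay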
# Description: SANGER: Inhibition of human GCIY cell growth in a cell viability assay.
# [28] = system: BB65-RCC; format: functional, cell-based, Homo sapiens; conditions: Homo sapiens, BB65-RCC;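 further: growth inhibition of the cell line, measured with a cell viability assay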
# Description: SANGER: Inhibition of human BB65-RCC cell growth in a cell viability assay.
# [29] = system: LB2241-RCC; format: functional, cell-based, Homo sapiens; conditions: Homo sapiens, LB2241-RCC;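 further: cell viability assay measuring how strongly the cultured human renal carcinoma line is prevented from growing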
# Description: SANGER: Inhibition of human LB2241-RCC cell growth in a cell viability assay.
# [30] = system: KGN; format: functional, cell-based, Homo sapiens; conditions: Homo sapiens, KGN;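 further: growth inhibition of KGN cells, read out with a cell viability assay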
# Description: SANGER: Inhibition of human KGN cell growth in a cell viability assay.
# [31] = system: NCI-H1092; format: functional, cell-based, Homo sapiens; conditions: Homo sapiens, NCI-H1092;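 further: cell growth inhibition measured with a cell viability assay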
# Description: SANGER: Inhibition of human NCI-H1092 cell growth in a cell viability assay.
# [32] = system: MEG-01; format: functional, cell-based, Homo sapiens; conditions: Homo sapiens, MEG-01;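 further: growth inhibition of MEG-01 cells, read out by a cell viability assay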
# Description: SANGER: Inhibition of human MEG-01 cell growth in a cell viability assay.
# [33] = system: EOL1; format: functional, cell-based, Homo sapiens; conditions: Homo sapiens, EOL1;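 further: growth inhibition of EoL-1 cells, read out by a cell viability assay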
# Description: SANGER: Inhibition of human EoL-1-cell cell growth in a cell viability assay.
# [34] = system: MOLT-4; format: functional, cell-based, Homo sapiens; conditions: Homo sapiens, MOLT-4;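 further: growth inhibition of MOLT-4 cells, determined with a cell viability readout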
# Description: SANGER: Inhibition of human MOLT-4 cell growth in a cell viability assay.
# [35] = system: CTV-1; format: functional, cell-based, Homo sapiens; conditions: Homo sapiens, CTV-1;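 further: growth inhibition of the cell line, read out with a cell viability assay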
# Description: SANGER: Inhibition of human CTV-1 cell growth in a cell viability assay.
# [36] = system: Lu-65; format: functional, cell-based, Homo sapiens; conditions: Homo sapiens, Lu-65;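 further: growth inhibition of Lu-65 cancer cells, read out by a cell viability assay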
# Description: SANGER: Inhibition of human LU-65 cell growth in a cell viability assay.
# [37] = system: MS-1; format: functional, cell-based, Homo sapiens; conditions: Homo sapiens, MS-1;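 further: growth inhibition of MS-1 cells, read out by cell viability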
# Description: SANGER: Inhibition of human MS-1 cell growth in a cell viability assay.
# [38] = system: NOMO-1; format: functional, cell-based, Homo sapiens; conditions: Homo sapiens, NOMO-1;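 further: growth inhibition of human NOMO-1 cells measured by a cell viability assay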
# Description: SANGER: Inhibition of human NOMO-1 cell growth in a cell viability assay.
# [39] = system: EW-18; format: functional, cell-based, Homo sapiens; conditions: Homo sapiens, EW-18;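 further: growth inhibition of EW-18 cells, read out by a cell viability assay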
# Description: SANGER: Inhibition of human EW-18 cell growth in a cell viability assay.
# [40] = system: NKM-1; format: functional, cell-based, Homo sapiens; conditions: Homo sapiens, NKM-1;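 further: growth inhibition of NKM-1 cells, read out with a cell viability assay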
# Description: SANGER: Inhibition of human NKM-1 cell growth in a cell viability assay.
# [41] = system: DOHH-2; format: functional, cell-based, Homo sapiens; conditions: Homo sapiens, DOHH-2;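 further: growth inhibition of human DOHH-2 cells, read out with a cell viability assay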
# Description: SANGER: Inhibition of human DOHH-2 cell growth in a cell viability assay.
# [42] = system: MHH-PREB-1; format: functional, cell-based, Homo sapiens; conditions: Homo sapiens, MHH-PREB-1;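 further: cell viability assay measuring inhibition of proliferation of human MHH-PREB-1 cells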
# Description: SANGER: Inhibition of human MHH-PREB-1 cell growth in a cell viability assay.
# [43] = system: MN-60; format: functional, cell-based, Homo sapiens; conditions: Homo sapiens, MN-60;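 further: growth inhibition of the MN-60 cell line, determined with a cell viability assay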
# Description: SANGER: Inhibition of human MN-60 cell growth in a cell viability assay.
# [44] = system: TE-12; format: functional, cell-based, Homo sapiens; conditions: Homo sapiens, TE-12;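 further: growth inhibition of TE-12 cells, read out by a cell viability assay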
# Description: SANGER: Inhibition of human TE-12 cell growth in a cell viability assay.
# [45] = system: JVM-3; format: functional, cell-based, Homo sapiens; conditions: Homo sapiens, JVM-3;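 further: growth inhibition of human JVM-3 cells, read out with a cell viability assay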
# Description: SANGER: Inhibition of human JVM-3 cell growth in a cell viability assay.
# [46] = system: NCI-H1155; format: functional, cell-based, Homo sapiens; conditions: Homo sapiens, NCI-H1155;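 further: cell growth inhibition measured by a viability assay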
# Description: SANGER: Inhibition of human NCI-H1155 cell growth in a cell viability assay.
# [47] = system: DB; format: functional, cell-based, Homo sapiens; conditions: Homo sapiens, DB
# Description: SANGER: Inhibition of human DB cell growth in a cell viability assay.
# [48] = system: MV4-11; format: functional, cell-based, Homo sapiens, MV-4-11; conditions: Homo sapiens, MV4-11;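 further: cell viability readout measuring growth inhibition of human MV-4-11 cells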
# Description: SANGER: Inhibition of human MV-4-11 cell growth in a cell viability assay.
# [49] = system: KY821; format: functional, cell-based, Homo sapiens; conditions: Homo sapiens, KY821;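 further: growth inhibition of human KY821 cells, read out by a cell viability assay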
# Description: SANGER: Inhibition of human KY821 cell growth in a cell viability assay.
smiles,measurement,setting,value
CC(C)c1ccccc1Cc1cc(C(=O)Nc2ccc(S(=O)(=O)c3ccccc3C(C)(C)C)cc2)c(O)c(O)c1O,IC50,[1],1.88 µM
same,IC50,[2],0.788 µM
same,IC50,[3],0.272 µM
same,IC50,[4],0.087 µM
same,IC50,[5],0.111 µM
same,IC50,[6],0.328 µM
same,IC50,[7],0.227 µM
same,IC50,[8],1.2 µM
same,IC50,[9],0.228 µM
same,IC50,[10],1.21 µM
same,IC50,[11],5.1 µM
same,IC50,[12],0.152 µM
same,IC50,[13],8.83 µM
same,IC50,[14],7.14 µM
same,IC50,[15],0.446 µM
same,IC50,[16],0.565 µM
same,IC50,[17],0.145 µM
same,IC50,[18],0.154 µM
same,IC50,[19],0.423 µM
same,IC50,[20],0.635 µM
same,IC50,[21],0.0152 µM
same,IC50,[22],2.49 µM
same,IC50,[23],0.373 µM
same,IC50,[24],2.54 µM
same,IC50,[25],0.277 µM
same,IC50,[26],3.87 µM
same,IC50,[27],0.0208 µM
same,IC50,[28],0.135 µM
same,IC50,[29],0.147 µM
same,IC50,[30],0.436 µM
C#Cc1cccc(Nc2ncnc3cc(OCCOC)c(OCCOC)cc23)c1 [ERLOTINIB],IC50,[31],> 2 µM
same,IC50,[32],> 2 µM
same,IC50,[1],> 2 µM
same,IC50,[33],> 2 µM
same,IC50,[2],> 2 µM
same,IC50,[3],> 2 µM
same,IC50,[4],> 2 µM
same,IC50,[34],> 2 µM
same,IC50,[35],> 2 µM
same,IC50,[8],> 2 µM
same,IC50,[36],> 2 µM
same,IC50,[37],> 2 µM
same,IC50,[38],> 2 µM
same,IC50,[9],> 2 µM
same,IC50,[10],> 2 µM
same,IC50,[11],> 2 µM
same,IC50,[12],> 2 µM
same,IC50,[13],> 2 µM
same,IC50,[39],> 2 µM
same,IC50,[14],1.12 µM
same,IC50,[40],> 2 µM
same,IC50,[41],> 2 µM
same,IC50,[15],> 2 µM
same,IC50,[16],> 2 µM
same,IC50,[17],> 2 µM
same,IC50,[18],> 2 µM
same,IC50,[19],> 2 µM
same,IC50,[20],> 2 µM
same,IC50,[21],> 2 µM
same,IC50,[22],> 2 µM
same,IC50,[23],> 2 µM
same,IC50,[24],> 2 µM
same,IC50,[25],> 2 µM
same,IC50,[26],> 2 µM
same,IC50,[27],> 2 µM
same,IC50,[42],> 2 µM
same,IC50,[28],> 2 µM
same,IC50,[43],> 2 µM
same,IC50,[29],> 2 µM
same,IC50,[30],> 2 µM
same,IC50,[44],0.0544 µM
same,IC50,[45],> 2 µM
Nc1cccc2c1CN(C1CCC(=O)NC1=O)C2=O (stereo not drawn) [LENALIDOMIDE],IC50,[31],> 5 µM
same,IC50,[32],> 5 µM
same,IC50,[1],> 5 µM
same,IC50,[33],4.11 µM
same,IC50,[46],> 5 µM
same,IC50,[2],> 5 µM
same,IC50,[3],> 5 µM
same,IC50,[4],> 5 µM
same,IC50,[47],> 5 µM
same,IC50,[5],> 5 µM
same,IC50,[6],> 5 µM
same,IC50,[34],> 5 µM
same,IC50,[35],> 5 µM
same,IC50,[7],> 5 µM
same,IC50,[8],> 5 µM
same,IC50,[36],> 5 µM
same,IC50,[37],> 5 µM
same,IC50,[38],> 5 µM
same,IC50,[9],> 5 µM
same,IC50,[10],> 5 µM
same,IC50,[11],> 5 µM
same,IC50,[12],> 5 µM
same,IC50,[13],> 5 µM
same,IC50,[39],> 5 µM
same,IC50,[14],> 5 µM
same,IC50,[40],> 5 µM
same,IC50,[41],> 5 µM
same,IC50,[15],> 5 µM
same,IC50,[16],> 5 µM
same,IC50,[17],> 5 µM
same,IC50,[18],> 5 µM
same,IC50,[19],> 5 µM
same,IC50,[48],> 5 µM
same,IC50,[20],> 5 µM
same,IC50,[49],> 5 µM
same,IC50,[21],> 5 µM
same,IC50,[22],> 5 µM
same,IC50,[23],> 5 µM
same,IC50,[24],> 5 µM
same,IC50,[25],> 5 µM
same,IC50,[26],> 5 µM
same,IC50,[27],> 5 µM
same,IC50,[42],> 5 µM
same,IC50,[28],> 5 µM
same,IC50,[43],> 5 µM
same,IC50,[29],> 5 µM
same,IC50,[30],> 5 µM
same,IC50,[44],> 5 µM
same,IC50,[45],> 5 µM
CN(C)C(=N)NC(=N)N [METFORMIN],IC50,[32],8620 µM
same,IC50,[1],> 20000 µM
same,IC50,[33],1820 µM
same,IC50,[46],17700 µM
same,IC50,[2],14100 µM
same,IC50,[3],> 20000 µM
same,IC50,[4],> 20000 µM
same,IC50,[47],> 20000 µM
same,IC50,[5],> 20000 µM
same,IC50,[6],> 20000 µM
same,IC50,[34],> 20000 µM
same,IC50,[35],1970 µM
same,IC50,[36],511 µM
same,IC50,[37],> 20000 µM
same,IC50,[38],> 20000 µM
same,IC50,[9],> 20000 µM
same,IC50,[10],> 20000 µM
same,IC50,[11],> 20000 µM
same,IC50,[12],> 20000 µM
same,IC50,[39],5850 µM
same,IC50,[14],> 20000 µM
same,IC50,[40],9110 µM
same,IC50,[41],7640 µM
same,IC50,[15],4120 µM
same,IC50,[16],16500 µM
same,IC50,[17],16000 µM
same,IC50,[18],> 20000 µM
same,IC50,[19],> 20000 µM
same,IC50,[48],8430 µM
same,IC50,[49],1530 µM
same,IC50,[21],> 20000 µM
same,IC50,[23],> 20000 µM
same,IC50,[26],> 20000 µM
same,IC50,[27],> 20000 µM
same,IC50,[42],11600 µM
same,IC50,[43],> 20000 µM
same,IC50,[29],> 20000 µM
same,IC50,[30],> 20000 µM
same,IC50,[44],> 20000 µM
same,IC50,[45],> 20000 µM
CS(=O)(=O)c1ccc(C(=O)Nc2ccc(Cl)c(-c3ccccn3)c2)c(Cl)c1 [VISMODEGIB],IC50,[31],> 10 µM
same,IC50,[32],> 10 µM
same,IC50,[1],> 10 µM
same,IC50,[46],> 10 µM
same,IC50,[2],> 10 µM
same,IC50,[3],> 10 µM
same,IC50,[4],> 10 µM
same,IC50,[47],> 10 µM
same,IC50,[5],> 10 µM
same,IC50,[6],> 10 µM
same,IC50,[34],> 10 µM
same,IC50,[35],> 10 µM
same,IC50,[7],> 10 µM
same,IC50,[8],> 10 µM
same,IC50,[36],> 10 µM
same,IC50,[37],> 10 µM
same,IC50,[38],> 10 µM
same,IC50,[9],> 10 µM
same,IC50,[10],> 10 µM
same,IC50,[11],> 10 µM
same,IC50,[12],> 10 µM
same,IC50,[13],> 10 µM
same,IC50,[39],> 10 µM
same,IC50,[14],> 10 µM
same,IC50,[40],> 10 µM
same,IC50,[41],> 10 µM
same,IC50,[15],> 10 µM
same,IC50,[16],> 10 µM
same,IC50,[17],> 10 µM
same,IC50,[18],> 10 µM
same,IC50,[19],> 10 µM
same,IC50,[48],> 10 µM
same,IC50,[20],> 10 µM
same,IC50,[21],> 10 µM
same,IC50,[22],> 10 µM
same,IC50,[23],> 10 µM
same,IC50,[24],> 10 µM
same,IC50,[25],> 10 µM
same,IC50,[26],> 10 µM
same,IC50,[27],> 10 µM
same,IC50,[42],> 10 µM
same,IC50,[28],> 10 µM
same,IC50,[43],> 10 µM
same,IC50,[29],> 10 µM
same,IC50,[30],> 10 µM
same,IC50,[44],> 10 µM
same,IC50,[45],> 10 µM
